Results taken from US4443436A, “C-20-Modified macrolide derivatives of the macrolide antibiotics tylosin, desmycosin, macrocin, and lactenocin” (Eli Lilly and Company, priority 1982, dated 1984).
Values after ≈ are worked out from the molar mass of the structure shown. Like-named read-outs stand apart in the source and are kept apart here.

Tests used:
[1] = test system: Staphylococcus aureus X1.1; assay: MIC, standard agar-dilution assay, Staphylococcus aureus X1.1; type: cell-based
[2] = test system: Staphylococcus aureus V41; assay: MIC, standard agar-dilution assay, Staphylococcus aureus V41; type: cell-based; settings: Staphylococcus aureus, V41
[3] = test system: Staphylococcus aureus X400; assay: MIC, standard agar-dilution assay, Staphylococcus aureus X400; type: cell-based
[4] = test system: Staphylococcus aureus S13E; assay: MIC, standard agar-dilution assay, Staphylococcus aureus S13E; type: cell-based; settings: Staphylococcus aureus, S13E
[5] = test system: Staphylococcus epidermidis EPI1; assay: MIC, standard agar-dilution assay, Staphylococcus epidermidis EPI1; type: cell-based
[6] = test system: Staphylococcus epidermidis EPI2; assay: MIC, standard agar-dilution assay, Staphylococcus epidermidis EPI2; type: cell-based
[7] = test system: Streptococcus pyogenes C203; assay: MIC, standard agar-dilution assay, Streptococcus pyogenes C203; type: cell-based
[8] = test system: Streptococcus pneumoniae Park I; assay: microbe, parasite or virus in culture; type: cell-based
[9] = test system: Streptococcus Group D X66; assay: MIC, standard agar-dilution assay, Streptococcus Group D X66; type: cell-based
Streptococcus Group 9960 = assay: MIC, standard agar-dilution assay, Streptococcus Group 9960; type: cell-based; settings: GROUP9960
Staphylococcus aureus = assay: MIC, broth-dilution microtiter test, Staphylococcus aureus; type: cell-based
Excerpt: (§1) The MIC's in Table X were obtained using conventional broth-dilution microtiter tests.

Streptococcus bovis 80 = assay: MIC, broth-dilution microtiter test, Streptococcus bovis 80; type: cell-based; settings: Streptococcus equinus
Excerpt: as §1

[10] = test system: Pasteurella multocida 17E; assay: MIC, broth-dilution microtiter test, Pasteurella multocida 17E; type: cell-based
Excerpt: as §1

[11] = test system: Pasteurella multocida 60A; assay: MIC, broth-dilution microtiter test, Pasteurella multocida 60A; type: cell-based; settings: Pasteurella multocida 60A; avian isolate; broth-dilution microtiter; read-out: MIC
Excerpt: as §1

[12] = test system: Pasteurella hemolytica 22C; assay: MIC, broth-dilution microtiter test, Pasteurella hemolytica 22C; type: cell-based; settings: Pasteurella hemolytica 22C; broth-dilution microtiter; read-out: MIC
Excerpt: as §1

Mycoplasma gallisepticum = assay: MIC, broth-dilution microtiter test, Mycoplasma gallisepticum; type: cell-based; settings: Mycoplasmoides gallisepticum
Excerpt: as §1

Mycoplasma synoviae = assay: MIC, broth-dilution microtiter test, Mycoplasma synoviae; type: cell-based; settings: Mycoplasmopsis synoviae
Excerpt: as §1

Mycoplasma hyorhinis = assay: MIC, broth-dilution microtiter test, Mycoplasma hyorhinis; type: cell-based
Excerpt: as §1

Mycoplasma hyopneumoniae = assay: MIC, broth-dilution microtiter test, Mycoplasma hyopneumoniae; type: cell-based; settings: Mesomycoplasma hyopneumoniae
Excerpt: as §1

[13] = test system: Streptococcus pyogenes C203; assay: In vivo protection of mice experimentally infected with S. pyogenes C203; settings: Streptococcus pyogenes
Procedure: The C-20 modified derivatives of this invention have shown in vivo antimicrobial activity against experimentally-induced infections in laboratory animals. When two doses of test compound were administered to mice experimentally infected with S. pyogenes C203, the activity observed was measured as an ED50 value [effective dose in mg/kg to protect 50% of the test animals: see Warren Wick, et al., J. Bacteriol. 81, 233-235 (1961)].

Pasteurella multocida [14] = assay: Subcutaneous treatment of Pasteurella multocida-infected chicks; type: in vivo, one-day-old chicks; settings: 30 mg/kg × 2, 1 and 4 hours post-challenge
Procedure: (§2) Many of the C-20 modified derivatives of this invention have also shown in vivo antibacterial activity against infections induced by gram-negative bacteria. Tables XII and XIII summarize the results of tests in which illustrative compounds were evaluated against Pasteurella infection in one-day-old chicks. The compounds were administered parenterally or orally after challenge of the chicks with Pasteurella multocida (0.1 ml of a 10^-4 dilution of a twenty-hour tryptose broth culture of an avian P. multocida given subcutaneously). In these tests, unless indicated otherwise, all non-medicated infected chicks died within 24 hours of Pasteurella challenge. In the tests summarized in Table XII the compounds were administered by subcutaneous injection at a dosage of 30 mg/kg, 1 and 4 hours post-challenge of the chicks with P. multocida. In the test summarized in Table XIII the compounds were administered by gavage at 1 and 5 hours post-challenge of the chicks with P. multocida.

[15] = test system: Haemophilus influenzae Holt; assay: MIC, standard agar-dilution assay, Haemophilus influenzae Holt; type: cell-based
[16] = test system: Haemophilus influenzae R252; assay: MIC, standard agar-dilution assay, Haemophilus influenzae R252; type: cell-based
Pasteurella multocida [17] = assay: Oral (gavage) treatment of Pasteurella multocida-infected chicks; type: in vivo, one-day-old chicks
Procedure: as §2

[18] = Staphylococcus epidermidis, EPI1
[19] = Staphylococcus epidermidis, EPI2
[20] = Streptococcus pneumoniae Park I, agar dilution, read-out: MIC
[21] = Streptococcus Group D X66, agar dilution, read-out: MIC
[22] = Streptococcus Group 9960, agar dilution, read-out: MIC
[23] = Pasteurella multocida 17E, bovine isolate, broth-dilution microtiter, read-out: MIC
[24] = C203, sc, mice, subcutaneous, doses given 1 and 4 hours post-infection, read-out: ED50, Subcutaneous
[25] = C203, mice, oral, doses given 1 and 4 hours post-infection, read-out: ED50, Oral
[26] = broth-dilution microtiter, read-out: MIC

SMILES	MIC ([1]; Staphylococcus aureus, X1.1) [µg/mL]	MIC [2] [µg/mL]	MIC [4] [µg/mL]	MIC [5, 18] [µg/mL]	MIC [6, 19] [µg/mL]	MIC ([7]; Streptococcus pyogenes, C203) [µg/mL]	MIC [8, 20] [µg/mL]	MIC [9, 21] [µg/mL]	MIC (Streptococcus Group 9960; [22]) [µg/mL]	MIC (Streptococcus bovis 80; 80) [µg/mL]	MIC [10, 23] [µg/mL]	MIC [11] [µg/mL]	MIC [12] [µg/mL]	MIC (Mycoplasma gallisepticum) [µg/mL]	MIC (Mycoplasma synoviae) [µg/mL]	MIC (Mycoplasma hyorhinis; Mycoplasma) [µg/mL]	MIC (Mycoplasma hyopneumoniae) [µg/mL]	ED50 [13, 24] [mg/kg]	ED50 [13, 25] [mg/kg]	Number of Deaths/Number Treated (Pasteurella multocida [14])	other results
CCC1OC(=O)CC(O)C(C)C(OC2OC(C)C(O)C(N(C)C)C2O)C(CCOC)CC(C)C(=O)C=CC(C)=CC1COC1OC(C)C(O)C(OC)C1OC (stereo not drawn) [Compound 30, 20-DH-20-O-Methyldesmycosin]	0.5 (≈ 0.635 µM)	0.5 (≈ 0.635 µM)	0.5 (≈ 0.635 µM)	0.5 (≈ 0.635 µM)	0.5 (≈ 0.635 µM)	0.5 (≈ 0.635 µM)	4 (≈ 5.08 µM)	16 (≈ 20.3 µM)	16 (≈ 20.3 µM)	12.5 (≈ 15.9 µM)	25 (≈ 31.7 µM)	25 (≈ 31.7 µM)	25 (≈ 31.7 µM)	0.39 (≈ 0.495 µM)	0.39 (≈ 0.495 µM)	50 (≈ 63.5 µM)	12.5 (≈ 15.9 µM)	> 6.3	25	10/10	MIC ([3]; Staphylococcus aureus X400, methicillin-resistant strain, agar dilution, read-out: MIC): 1 µg/mL (≈ 1.27 µM); MIC (Staphylococcus aureus): 0.78 µg/mL (≈ 0.99 µM)
CCC1OC(=O)CC(O)C(C)C(OC2OC(C)C(O)C(N(C)C)C2O)C(CCOC(=O)c2nn(CC)c3cc4c(cc3c2=O)OCO4)CC(C)C(=O)C=CC(C)=CC1COC1OC(C)C(O)C(OC)C1OC (stereo not drawn) [Compound 27, 20-DH-20-O-Cinoxacinyldesmycosin]	–	4 (≈ 3.93 µM)	4 (≈ 3.93 µM)	–	4 (≈ 3.93 µM)	–	0.12 (≈ 0.118 µM)	4 (≈ 3.93 µM)	–	–	25 (≈ 24.6 µM)	25 (≈ 24.6 µM)	50 (≈ 49.1 µM)	1.56 (≈ 1.53 µM)	–	–	–	< 1.5	–	6/10	MIC ([1]; Staphylococcus aureus X1.1, agar dilution, read-out: MIC): 2 µg/mL (≈ 1.96 µM); MIC ([3]; Staphylococcus aureus, X400): 8 µg/mL (≈ 7.86 µM); MIC ([5]; Staphylococcus epidermidis EPI1, agar dilution, read-out: MIC): 1 µg/mL (≈ 0.982 µM); MIC ([7]; Streptococcus pyogenes C203, agar dilution, read-out: MIC): 0.12 µg/mL (≈ 0.118 µM); MIC (Streptococcus Group 9960): 8 µg/mL (≈ 7.86 µM); MIC ([15]; Haemophilus influenzae Holt, ampicillin-sensitive strain, read-out: MIC): 32 µg/mL (≈ 31.4 µM); MIC ([16]; Haemophilus influenzae R252, ampicillin-resistant strain, read-out: MIC): 32 µg/mL (≈ 31.4 µM); MIC (Staphylococcus aureus; [26]): 3.12 µg/mL (≈ 3.06 µM); MIC (Streptococcus bovis 80; Streptococcus bovis 80, broth-dilution microtiter, read-out: MIC): 0.78 µg/mL (≈ 0.766 µM); MIC (Mycoplasma hyorhinis; Mycoplasma hyorhinis, broth-dilution microtiter, read-out: MIC): 6.25 µg/mL (≈ 6.14 µM); ED50 ([13]; C203, po, read-out: ED50, Oral): > 100 mg/kg
CCC1OC(=O)CC(O)C(C)C(OC2OC(C)C(O)C(N(C)C)C2O)C(CCOc2ccc([N+](=O)[O-])cc2)CC(C)C(=O)C=CC(C)=CC1COC1OC(C)C(O)C(OC)C1OC (stereo not drawn) [Compound 34, 20-DH-20-O-(p-Nitrophenyl)desmycosin]	0.5 (≈ 0.559 µM)	0.5 (≈ 0.559 µM)	0.5 (≈ 0.559 µM)	0.5 (≈ 0.559 µM)	–	1 (≈ 1.12 µM)	–	–	8 (≈ 8.94 µM)	1.56 (≈ 1.74 µM)	–	25 (≈ 27.9 µM)	25 (≈ 27.9 µM)	–	0.78 (≈ 0.871 µM)	50 (≈ 55.9 µM)	12.5 (≈ 14 µM)	1.1	5	–	MIC ([3]; Staphylococcus aureus, X400): 1 µg/mL (≈ 1.12 µM); MIC ([6]; Staphylococcus epidermidis EPI2, agar dilution, read-out: MIC): 0.12 µg/mL (≈ 0.134 µM); MIC ([8]; Streptococcus pneumoniae): 1 µg/mL (≈ 1.12 µM); MIC [9]: 4 µg/mL (≈ 4.47 µM); MIC ([15]; Haemophilus influenzae): 16 µg/mL (≈ 17.9 µM); MIC ([16]; Haemophilus influenzae, R252): 16 µg/mL (≈ 17.9 µM); MIC (Staphylococcus aureus; [26]): 0.39 µg/mL (≈ 0.436 µM); MIC ([10]; Pasteurella multocida, 17E): 12.5 µg/mL (≈ 14 µM); MIC (Mycoplasma gallisepticum; Mycoplasma gallisepticum, broth-dilution microtiter, read-out: MIC): 0.39 µg/mL (≈ 0.436 µM); Number of Deaths/Number tested (Pasteurella multocida [17]; 0.5 g/gal equivalent): 7/10; Number of Deaths/Number tested (Pasteurella multocida [17]; 1.0 g/gal equivalent): 9/10
